Assay results from patent EP0327492A1, “Herbicidally and plantgrowth regulatory active quinoline and pyrindine compounds” (CIBA-GEIGY AG, priority 1988, dated 1989).

Tests used:
Format in all cases: in vivo
Chenopodium Sp. [1] = assay: Post-emergent herbicidal action, contact herbicide (B.3); details: 500 bis 2000 [g/ha], 15 days after treatment
Procedure, shortened: (§1)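 Monocot and dicot weeds are grown to the 4- to 6-leaf stage and then sprayed with the compound as an aqueous dispersion at 2000-500 g/ha. They are kept at 24-26 °C and 45-60% RH for 15 days. Injury is then rated from 1 (plant dead) to 9 (like untreated controls).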

Abutilon [2] = assay: as above; details: 500 bis 2000 [g/ha], 15 days after treatment
Procedure, shortened: as §1

Stellaria [3] = assay: as above; details: 500 bis 2000 [g/ha], 15 days after treatment
Procedure, shortened: as §1

Amaranthus ret. [4] = assay: as above; details: 500 bis 2000 [g/ha], 15 days after treatment
Procedure, shortened: as §1

Xanthium Sp. = assay: as above; details: 500 bis 2000 [g/ha], 15 days after treatment
Procedure, shortened: as §1

Solanum nigrum [5] = assay: as above; details: 500 bis 2000 [g/ha], 15 days after treatment
Procedure, shortened: as §1

Veronica Sp. [6] = assay: as above; details: 500 bis 2000 [g/ha], 15 days after treatment
Procedure, shortened: as §1

Lolium perenne [7] = assay: as above; details: 500 bis 2000 [g/ha], 15 days after treatment
Procedure, shortened: as §1

Avena fatua [8] = assay: as above; details: 500 bis 2000 [g/ha], 15 days after treatment
Procedure, shortened: as §1

Echinochloa crus galli [9] = assay: as above; details: 500 bis 2000 [g/ha], 15 days after treatment
Procedure, shortened: as §1

Chrysanthe. leuc. [10] = assay: as above; details: 500 bis 2000 [g/ha], 15 days after treatment
Procedure, shortened: as §1

Galium aparine [11] = assay: as above; details: 500 bis 2000 [g/ha], 15 days after treatment
Procedure, shortened: as §1

Digitaria sang. [12] = assay: as above; details: 500 bis 2000 [g/ha], 15 days after treatment
Procedure, shortened: as §1

Sinapis [13] = assay: as above; details: 500 bis 2000 [g/ha], 15 days after treatment
Procedure, shortened: as §1

Sorghum halep. [14] = assay: as above; details: 500 bis 2000 [g/ha], 15 days after treatment
Procedure, shortened: as §1

Bromus tectorum [15] = assay: as above; details: 500 bis 2000 [g/ha], 15 days after treatment
Procedure, shortened: as §1

Alopecurus myos. [16] = assay: as above; details: 500 bis 2000 [g/ha], 15 days after treatment
Procedure, shortened: as §1

Soja [17] = assay: Post-emergent herbicidal action (B.3), crop tolerance; details: 500 bis 2000 [g/ha], 15 days after treatment
Description: (§2) Im Gewächshaus wird unmittelbar nach der Einsaat der Versuchspflanzen in Saatschalen die Erdoberfläche mit einer wässrigen Dispersion der Wirkstoffe, erhalten aus einem 25 %igen Emulsionskonzentrat behandelt. Es werden Konzentrationen von 2000-500 g Wirksubstanz/Hektar angewendet. Die Saatschalen werden im Gewächshaus bei 22-25° C und 50-70 % relativer Luftfeuchtigkeit gehalten und der Versuch nach 3 Wochen ausgewertet und die Resultate nach folgender Notenskala ausgewertet. • 1 Pflanze hat nicht gekeimt oder ist eingegangen • 2-3 sehr starke Schäden • 4 starke Schäden • 5 mittlere Schäden, die Pflanzen sind verkümmert • 6 Schäden, die Pflanze kann regenerieren • 7-8 leichte Schäden • 9 normales Wachstum, wie das unbehandelter Pflanzen
(§3) Boniturnoten von 1 bis 4 (insbesondere von 1 bis 3) weisen auf eine gute bis sehr gute Herbizidwirkung hin. Boniturnoten von 6 bis 9 (insbesondere 7 bis 9) weisen auf eine gute Toleranz (insbesondere bei Kulturpflanzen) hin.
(§4) Eine Anzahl Unkräuter, sowohl monokotyle wie dikotyle, werden nach dem Auflaufen (im 4- bis 6-Blattstadium) mit einer wässrigen Wirkstoffdispersion in einer Dosierung von 2000-500 g Wirksubstanz pro Hektar auf die Pflanzen gespritzt und diese bei 24°-26°C und 45-60 % relativer Luftfeuchtigkeit gehalten. 15 Tage nach der Behandlung wird der Versuch nach dem in Beispiel B.2. gegebenen Massstab bewertet.

Baumwolle = assay: as above; details: 500 bis 2000 [g/ha], 15 days after treatment
Description: as §2, §3, §4

Soja [18] = assay: Pre-emergent herbicidal action (B.2), crop tolerance; details: 500 bis 2000 [g/ha], evaluated after 3 weeks
Description: as §2, §3

Ipomoea = assay: Pre-emergent herbicidal action (B.2); details: 500 bis 2000 [g/ha], evaluated after 3 weeks
Description: as §2, §3

Chenopodium Sp. [19] = assay: Pre-emergent herbicidal action (B.2); details: 500 bis 2000 [g/ha], evaluated after 3 weeks
Description: as §2, §3

Abutilon [20] = assay: Pre-emergent herbicidal action (B.2); details: 500 bis 2000 [g/ha], evaluated after 3 weeks
Description: as §2, §3

Stellaria [21] = assay: Pre-emergent herbicidal action (B.2); details: 500 bis 2000 [g/ha], evaluated after 3 weeks
Description: as §2, §3

Amaranthus ret. [22] = assay: Pre-emergent herbicidal action (B.2); details: 500 bis 2000 [g/ha], evaluated after 3 weeks
Description: as §2, §3

Solanum nigrum [23] = assay: Pre-emergent herbicidal action (B.2); details: 500 bis 2000 [g/ha], evaluated after 3 weeks
Description: as §2, §3

Veronica Sp. [24] = assay: Pre-emergent herbicidal action (B.2); details: 500 bis 2000 [g/ha], evaluated after 3 weeks
Description: as §2, §3

Lolium perenne [25] = assay: Pre-emergent herbicidal action (B.2); details: 500 bis 2000 [g/ha], evaluated after 3 weeks
Description: as §2, §3

Avena fatua [26] = assay: Pre-emergent herbicidal action (B.2); details: 500 bis 2000 [g/ha], evaluated after 3 weeks
Description: as §2, §3

Echinochloa crus galli [27] = assay: Pre-emergent herbicidal action (B.2); details: 500 bis 2000 [g/ha], evaluated after 3 weeks
Description: as §2, §3

Chrysanthe. leuc. [28] = assay: Pre-emergent herbicidal action (B.2); details: 500 bis 2000 [g/ha], evaluated after 3 weeks
Description: as §2, §3

Galium aparine [29] = assay: Pre-emergent herbicidal action (B.2); details: 500 bis 2000 [g/ha], evaluated after 3 weeks
Description: as §2, §3

Digitaria sang. [30] = assay: Pre-emergent herbicidal action (B.2); details: 500 bis 2000 [g/ha], evaluated after 3 weeks
Description: as §2, §3

Sinapis [31] = assay: Pre-emergent herbicidal action (B.2); details: 500 bis 2000 [g/ha], evaluated after 3 weeks
Description: as §2, §3

Sorghum halep. [32] = assay: Pre-emergent herbicidal action (B.2); details: 500 bis 2000 [g/ha], evaluated after 3 weeks
Description: as §2, §3

Bromus tectorum [33] = assay: Pre-emergent herbicidal action (B.2); details: 500 bis 2000 [g/ha], evaluated after 3 weeks
Description: as §2, §3

Alopecurus myos. [34] = assay: Pre-emergent herbicidal action (B.2); details: 500 bis 2000 [g/ha], evaluated after 3 weeks
Description: as §2, §3

## CC1CCc2nc(C3=NC(=O)C(C)(C(C)C)N3)c(C(=O)O)cc2C1 (stereo not shown) [Verbindung 2.01, 2-(5-Isopropyl-5-methyl-1H-imidazol-4-on-2-yl)-6-methyl-5,6,7,8-tetrahydrochinolin-3-carbonsäure]
Chenopodium Sp. [1]
  Herbizidwirkung: gute bis sehr gute Herbizidwirkung (Boniturnoten von 1 bis 4 (insbesondere von 1 bis 3) weisen auf eine gute bis sehr gute Herbizidwirkung hin)
Abutilon [2]
  Herbizidwirkung: gute bis sehr gute Herbizidwirkung (Boniturnoten von 1 bis 4 (insbesondere von 1 bis 3) weisen auf eine gute bis sehr gute Herbizidwirkung hin)
Stellaria [3]
  Herbizidwirkung: gute bis sehr gute Herbizidwirkung (Boniturnoten von 1 bis 4 (insbesondere von 1 bis 3) weisen auf eine gute bis sehr gute Herbizidwirkung hin)
Amaranthus ret. [4]
  Herbizidwirkung: gute bis sehr gute Herbizidwirkung (Boniturnoten von 1 bis 4 (insbesondere von 1 bis 3) weisen auf eine gute bis sehr gute Herbizidwirkung hin)
Xanthium Sp.
  Herbizidwirkung: gute bis sehr gute Herbizidwirkung (Boniturnoten von 1 bis 4 (insbesondere von 1 bis 3) weisen auf eine gute bis sehr gute Herbizidwirkung hin)
Solanum nigrum [5]
  Herbizidwirkung: gute bis sehr gute Herbizidwirkung (Boniturnoten von 1 bis 4 (insbesondere von 1 bis 3) weisen auf eine gute bis sehr gute Herbizidwirkung hin)
Veronica Sp. [6]
  Herbizidwirkung: gute bis sehr gute Herbizidwirkung (Boniturnoten von 1 bis 4 (insbesondere von 1 bis 3) weisen auf eine gute bis sehr gute Herbizidwirkung hin)
Lolium perenne [7]
  Herbizidwirkung: gute bis sehr gute Herbizidwirkung (Boniturnoten von 1 bis 4 (insbesondere von 1 bis 3) weisen auf eine gute bis sehr gute Herbizidwirkung hin)
Avena fatua [8]
  Herbizidwirkung: gute bis sehr gute Herbizidwirkung (Boniturnoten von 1 bis 4 (insbesondere von 1 bis 3) weisen auf eine gute bis sehr gute Herbizidwirkung hin)
Echinochloa crus galli [9]
  Herbizidwirkung: gute bis sehr gute Herbizidwirkung (Boniturnoten von 1 bis 4 (insbesondere von 1 bis 3) weisen auf eine gute bis sehr gute Herbizidwirkung hin)
Chrysanthe. leuc. [10]
  Herbizidwirkung: gute bis sehr gute Herbizidwirkung (Boniturnoten von 1 bis 4 (insbesondere von 1 bis 3) weisen auf eine gute bis sehr gute Herbizidwirkung hin)
Galium aparine [11]
  Herbizidwirkung: gute bis sehr gute Herbizidwirkung (Boniturnoten von 1 bis 4 (insbesondere von 1 bis 3) weisen auf eine gute bis sehr gute Herbizidwirkung hin)
Digitaria sang. [12]
  Herbizidwirkung: gute bis sehr gute Herbizidwirkung (Boniturnoten von 1 bis 4 (insbesondere von 1 bis 3) weisen auf eine gute bis sehr gute Herbizidwirkung hin)
Sinapis [13]
  Herbizidwirkung: gute bis sehr gute Herbizidwirkung (Boniturnoten von 1 bis 4 (insbesondere von 1 bis 3) weisen auf eine gute bis sehr gute Herbizidwirkung hin)
Sorghum halep. [14]
  Herbizidwirkung: gute bis sehr gute Herbizidwirkung (Boniturnoten von 1 bis 4 (insbesondere von 1 bis 3) weisen auf eine gute bis sehr gute Herbizidwirkung hin)
Bromus tectorum [15]
  Herbizidwirkung: gute bis sehr gute Herbizidwirkung (Boniturnoten von 1 bis 4 (insbesondere von 1 bis 3) weisen auf eine gute bis sehr gute Herbizidwirkung hin)
Alopecurus myos. [16]
  Herbizidwirkung: gute bis sehr gute Herbizidwirkung (Boniturnoten von 1 bis 4 (insbesondere von 1 bis 3) weisen auf eine gute bis sehr gute Herbizidwirkung hin)
Soja [17]
  Toleranz (im Wachstum beeinflusst): gute Toleranz (Boniturnoten von 6 bis 9 (insbesondere 7 bis 9) weisen auf eine gute Toleranz (insbesondere bei Kulturpflanzen) hin)
Baumwolle
  Toleranz (im Wachstum beeinflusst): gute Toleranz (Boniturnoten von 6 bis 9 (insbesondere 7 bis 9) weisen auf eine gute Toleranz (insbesondere bei Kulturpflanzen) hin)
Soja [18]
  Toleranz (im Wachstum beeinflusst): gute Toleranz (Boniturnoten von 6 bis 9 (insbesondere 7 bis 9) weisen auf eine gute Toleranz (insbesondere bei Kulturpflanzen) hin)
Ipomoea
  Herbizidwirkung: gute bis sehr gute Herbizidwirkung (Boniturnoten von 1 bis 4 (insbesondere von 1 bis 3) weisen auf eine gute bis sehr gute Herbizidwirkung hin)
Chenopodium Sp. [19]
  Herbizidwirkung: gute bis sehr gute Herbizidwirkung (Boniturnoten von 1 bis 4 (insbesondere von 1 bis 3) weisen auf eine gute bis sehr gute Herbizidwirkung hin)
Abutilon [20]
  Herbizidwirkung: gute bis sehr gute Herbizidwirkung (Boniturnoten von 1 bis 4 (insbesondere von 1 bis 3) weisen auf eine gute bis sehr gute Herbizidwirkung hin)
Stellaria [21]
  Herbizidwirkung: gute bis sehr gute Herbizidwirkung (Boniturnoten von 1 bis 4 (insbesondere von 1 bis 3) weisen auf eine gute bis sehr gute Herbizidwirkung hin)
Amaranthus ret. [22]
  Herbizidwirkung: gute bis sehr gute Herbizidwirkung (Boniturnoten von 1 bis 4 (insbesondere von 1 bis 3) weisen auf eine gute bis sehr gute Herbizidwirkung hin)
Solanum nigrum [23]
  Herbizidwirkung: gute bis sehr gute Herbizidwirkung (Boniturnoten von 1 bis 4 (insbesondere von 1 bis 3) weisen auf eine gute bis sehr gute Herbizidwirkung hin)
Veronica Sp. [24]
  Herbizidwirkung: gute bis sehr gute Herbizidwirkung (Boniturnoten von 1 bis 4 (insbesondere von 1 bis 3) weisen auf eine gute bis sehr gute Herbizidwirkung hin)
Lolium perenne [25]
  Herbizidwirkung: gute bis sehr gute Herbizidwirkung (Boniturnoten von 1 bis 4 (insbesondere von 1 bis 3) weisen auf eine gute bis sehr gute Herbizidwirkung hin)
Avena fatua [26]
  Herbizidwirkung: gute bis sehr gute Herbizidwirkung (Boniturnoten von 1 bis 4 (insbesondere von 1 bis 3) weisen auf eine gute bis sehr gute Herbizidwirkung hin)
Echinochloa crus galli [27]
  Herbizidwirkung: gute bis sehr gute Herbizidwirkung (Boniturnoten von 1 bis 4 (insbesondere von 1 bis 3) weisen auf eine gute bis sehr gute Herbizidwirkung hin)
Chrysanthe. leuc. [28]
  Herbizidwirkung: gute bis sehr gute Herbizidwirkung (Boniturnoten von 1 bis 4 (insbesondere von 1 bis 3) weisen auf eine gute bis sehr gute Herbizidwirkung hin)
Galium aparine [29]
  Herbizidwirkung: gute bis sehr gute Herbizidwirkung (Boniturnoten von 1 bis 4 (insbesondere von 1 bis 3) weisen auf eine gute bis sehr gute Herbizidwirkung hin)
Digitaria sang. [30]
  Herbizidwirkung: gute bis sehr gute Herbizidwirkung (Boniturnoten von 1 bis 4 (insbesondere von 1 bis 3) weisen auf eine gute bis sehr gute Herbizidwirkung hin)
Sinapis [31]
  Herbizidwirkung: gute bis sehr gute Herbizidwirkung (Boniturnoten von 1 bis 4 (insbesondere von 1 bis 3) weisen auf eine gute bis sehr gute Herbizidwirkung hin)
Sorghum halep. [32]
  Herbizidwirkung: gute bis sehr gute Herbizidwirkung (Boniturnoten von 1 bis 4 (insbesondere von 1 bis 3) weisen auf eine gute bis sehr gute Herbizidwirkung hin)
Bromus tectorum [33]
  Herbizidwirkung: gute bis sehr gute Herbizidwirkung (Boniturnoten von 1 bis 4 (insbesondere von 1 bis 3) weisen auf eine gute bis sehr gute Herbizidwirkung hin)
Alopecurus myos. [34]
  Herbizidwirkung: gute bis sehr gute Herbizidwirkung (Boniturnoten von 1 bis 4 (insbesondere von 1 bis 3) weisen auf eine gute bis sehr gute Herbizidwirkung hin)
